pIC50: −log10 of the molar value.
Assays:
[1] = Metabolic stability in human liver microsomes; assay type: in vitro ADME
Procedure: Metabolic stability. […] For detailed results, including UPLC chromatograms and MS spectra, see the Supporting information (Figures S1–S16).
The metabolic stability was evaluated by incubation of compounds with human liver microsomes (Sigma-Aldrich, St. Louis, MO, USA) in 10 mM Tris–HCl buffer (pH 7.4) at 37 °C for 120 min in the presence of NADPH Regeneration System (Promega, Madison, WI, USA). The percentage of the remaining substrate and the most probable metabolic pathways were estimated by UPLC-MS analyses of the reaction mixtures.

[2] = tested on: HepG2 (human hepatocellular carcinoma) cells; assay: Hepatotoxicity, MTS cell viability test; assay type: cell-based; conditions: 72 h
Procedure: Hepatotoxicity. To further investigate the safety of the compounds, we determined their hepatotoxicity. We used the MTS test that determines cell viability to assess the effect of compounds 14, 16 and 19 on HepG2 (human hepatocellular carcinoma) cells. The compounds were tested at 1, 10, 50 and 100 μM, and cytostatic drug doxorubicin (DX) at 1 μM was used as a reference compound. […]. The HepG2 (ATCC® HB-8065™) cell line was cultivated according to the procedure provided by ATCC. The tested compounds were incubated with cells for 72 h in the following concentrations: 1, 10, 50 and 100 μM. To evaluate the cells’ viability, CellTiter 96® AQueous Non-Radioactive Cell Proliferation Assay (MTS, Promega®, Madison, WI, USA) was performed. The antiproliferative drug doxorubicin was used as a positive control at the concentration of 1 µM. For determination of the IC50 value for compound 14, additional study was performed. The tested compound was incubated with the HepG2 cells for 72 h in the following nine concentrations: 0.001, 0.01, 0.1, 1, 5, 10, 25, 50 and 100 μM. The cells’ viability was estimated by MTS test. IC50 was calculated by Graph Pad Prism 8.0.1 software.

[3] = Metabolic stability in mouse liver microsomes; assay type: in vitro ADME; conditions: 2 h, pH 7.4
CYP2D6 = biological target: T1, CYP2D6 (Homo sapiens, UniProt P10635); assay: CYP P450-Glo luminescence assay, CYP2D6; assay type: in vitro ADME; conditions: human, CYP2D6 enzyme in the luminescent P450-Glo assay (Promega); 0.1 µM
T1 construct: purchased Promega, Madison, WI, USA
T1 sequence (P10635 whole entry): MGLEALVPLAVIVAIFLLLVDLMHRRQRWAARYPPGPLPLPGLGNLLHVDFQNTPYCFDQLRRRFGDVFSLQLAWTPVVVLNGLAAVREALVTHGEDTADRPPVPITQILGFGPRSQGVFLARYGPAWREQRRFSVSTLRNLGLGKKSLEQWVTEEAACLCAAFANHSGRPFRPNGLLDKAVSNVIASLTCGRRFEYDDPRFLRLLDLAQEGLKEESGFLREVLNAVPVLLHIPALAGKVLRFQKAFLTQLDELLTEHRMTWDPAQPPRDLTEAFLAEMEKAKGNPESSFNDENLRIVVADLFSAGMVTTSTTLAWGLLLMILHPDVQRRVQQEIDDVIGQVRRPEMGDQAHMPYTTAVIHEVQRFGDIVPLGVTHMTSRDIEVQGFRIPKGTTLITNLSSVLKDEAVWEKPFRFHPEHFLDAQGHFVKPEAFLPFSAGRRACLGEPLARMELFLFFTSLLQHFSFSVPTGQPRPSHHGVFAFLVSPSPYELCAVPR
Description: Influence on CYP3A4 and CYP2D6 activity. Possible drug–drug interactions (DDIs) are an important issue for elderly patients, who are usually on multiple medications. They may result, among other things, from the interactions (inhibition or activation) of the cytochrome P450 isoenzymes, especially CYP3A4 and CYP2D6, which play the most significant role in drugs’ biotransformation. Therefore, to predict the potential influence of the studied compounds (14, 16 and 19) on the metabolism of other drugs, we used the CYP450 inhibition luminescence assay (Promega). […]. […] […]. […] […].
The influence on CYP 3A4 and 2D6 activity was estimated by respective luminescent CYP P450-Glo™ assay (Promega®, Madison, WI, USA). The compounds were tested in the concentration range of 0.1–25 µM. The results were compared to the respective reference CYP inhibitors: ketoconazole and quinidine.

[4] = Metal-chelating properties, spectrophotometric; conditions: 50 µM ligand and Fe^2+, 250–400 nm
Description: Metal-chelating properties. The homeostasis of metal ions in the brain is one of the important factors that determine its proper functioning. Disturbed levels of metal ions can lead to overproduction and aggregation of amyloid beta tau proteins and an increase in oxygen radicals production, leading to a degeneration of neurons observed in AD [55]. Additionally, it was observed that iron accumulation in microglia triggers a cascade of events leading to the production of a more sustained inflammatory response with increased reactive oxygen species (ROS) production and increased glycolysis. Adjusting the balance of metal ions by supplementing or chelating may be beneficial in alleviating AD pathology. Thus, we tested the metal-chelating properties of compounds 12–19 against 10 metal ions, recognised as potentially involved in AD. The formation of ligand–ion (Al^3+, Ca^2+, Co^2+, Cu^2+, Fe^2+, Fe^3+, Mg^2+, Ni^2+, Pb^2+ or Zn^2+) complexes was measured spectrophotometrically (250–400 nm with 4 nm interval) at 50 µM concentrations of both, according to the protocol reported previously. Metal-chelating ability was calculated as a shift of absorbance between the absorbance of the ligand–ion mixture and the sum of the absorbance of the ligand and ion separately. […]

Compound: O=S(=O)(c1ccccc1)n1ccc2c(OCCNCCCC3CCN(Cc4ccccc4)CC3)cccc21 [Compound 14, 3-(1-Benzylpiperidin-4-yl)-N-(2-((1-(phenylsulfonyl)-1H-indol-4-yl)oxy)ethyl)propan-1-amine]
- main metabolic pathway [1]: oxidative deamination
- HLMs % Left ([1]; human, 2 h, pH 7.4): 84.69%
- pIC50 ([2]; Homo sapiens, HepG2, MTS test): 5.67
- fold HepG2 IC50 over Ki for 5-HT6R and IC50 for hBuChE (safety margin) ([2]; human): at least 98 fold
- MLMs % Left [3]: 75.54%
- inhibition at 0.1 µM (CYP2D6): ~20%

Compound: O=S(=O)(c1ccccc1)N1CCc2c(OCCNCC3CCN(Cc4ccccc4)CC3)cccc21 [Compound 15, N-((1-Benzylpiperidin-4-yl)methyl)-2-((1-(phenylsulfonyl)indolin-4-yl)oxy)ethan-1-amine]
- Fe^2+ chelating properties (shift of absorbance) [4]: Fe^2+ ions chelators

Compound: O=c1[nH]c2c(OCCNCCC3CCN(Cc4ccccc4)CC3)cccc2n1Cc1ccccc1 [Compound 18, 1-Benzyl-4-(2-((2-(1-benzylpiperidin-4-yl)ethyl)amino)ethoxy)-1,3-dihydro-2H-benzo[d]imidazol-2-one]
- Fe^2+ chelating properties (shift of absorbance) [4]: Fe^2+ ions chelators

From paper PMC9409043, “Serotonin 5-HT6 Receptor Ligands and Butyrylcholinesterase Inhibitors Displaying Antioxidant Activity—Design, Synthesis and Biological Evaluation of Multifunctional Agents against Alzheimer’s Disease” (International Journal of Molecular Sciences, 2022)
